From ChEMBL document CHEMBL4002566, “S-substituted 3,5-dinitrophenyl 1,3,4-oxadiazole-2-thiols and tetrazole-5-thiols as highly efficient antitubercular agents” (Eur J Med Chem, 2017)
Converted amounts (≈) assume the structure as drawn.

Legend:
[1] = test system: Mycobacterium avium; assay: Antimycobacterial activity against Mycobacterium avium CNCTC My 330/88 after 21 days by micromethod; assay type: functional; conditions: CNCTC My 330/88, 504 h
[2] = test system: Mycobacterium tuberculosis; assay: Antimycobacterial activity against Mycobacterium tuberculosis CNCTC My 331/88 after 14 days by micromethod; assay type: functional; conditions: CNCTC My 331/88, 336 h
[3] = test system: Mycobacterium avium; assay: Antimycobacterial activity against Mycobacterium avium CNCTC My 330/88 after 14 days by micromethod; assay type: functional; conditions: CNCTC My 330/88, 336 h
[4] = test system: Mycobacterium kansasii; assay: Antimycobacterial activity against Mycobacterium kansasii CNCTC My 235/80 after 14 days by micromethod; assay type: functional; conditions: CNCTC My 235/80, 336 h
[5] = test system: Mycobacterium kansasii; assay: Antimycobacterial activity against Mycobacterium kansasii 6509/96 clinical isolate after 14 days by micromethod; assay type: functional; conditions: 6509/96, 336 h
[6] = test system: Candida albicans; assay: Antifungal activity against Candida albicans ATCC 44859 after 24 hrs by broth microdilution method; assay type: functional; conditions: ATCC 44859, 24 h
[7] = test system: Candida albicans; assay: Antifungal activity against Candida albicans ATCC 44859 after 48 hrs by broth microdilution method; assay type: functional; conditions: ATCC 44859, 48 h
[8] = test system: Candida tropicalis; assay: Antifungal activity against Candida tropicalis 156 after 24 hrs by broth microdilution method; assay type: functional; conditions: Candida tropicalis, 156, 24 h
[9] = test system: Candida tropicalis; assay: Antifungal activity against Candida tropicalis 156 after 48 hrs by broth microdilution method; assay type: functional; conditions: Candida tropicalis, 156, 48 h
[10] = test system: Pichia kudriavzevii; assay: Antifungal activity against Candida krusei E28 after 24 hrs by broth microdilution method; assay type: functional; conditions: E28, 24 h
[11] = test system: Pichia kudriavzevii; assay: Antifungal activity against Candida krusei E28 after 48 hrs by broth microdilution method; assay type: functional; conditions: E28, 48 h
[12] = test system: Nakaseomyces glabratus; assay: Antifungal activity against Candida glabrata 20/I after 24 hrs by broth microdilution method; assay type: functional
[13] = test system: Nakaseomyces glabratus; assay: Antifungal activity against Candida glabrata 20/I after 48 hrs by broth microdilution method; assay type: functional
[14] = test system: Trichosporon asahii; assay: Antifungal activity against Trichosporon asahii 1188 after 24 hrs by broth microdilution method; assay type: functional; conditions: Trichosporon asahii, 1188, 24 h
[15] = test system: Trichosporon asahii; assay: Antifungal activity against Trichosporon asahii 1188 after 48 hrs by broth microdilution method; assay type: functional; conditions: Trichosporon asahii, 1188, 48 h
[16] = test system: Aspergillus fumigatus; assay: Antifungal activity against Aspergillus fumigatus 231 after 24 hrs by broth microdilution method; assay type: functional; conditions: Aspergillus fumigatus, 231, 24 h
[17] = test system: Aspergillus fumigatus; assay: Antifungal activity against Aspergillus fumigatus 231 after 48 hrs by broth microdilution method; assay type: functional; conditions: Aspergillus fumigatus, 231, 48 h
[18] = test system: Lichtheimia corymbifera; assay: Antifungal activity against Absidia corymbifera 272 after 24 hrs by broth microdilution method; assay type: functional; conditions: Lichtheimia corymbifera, 272, 24 h
[19] = test system: Lichtheimia corymbifera; assay: Antifungal activity against Absidia corymbifera 272 after 48 hrs by broth microdilution method; assay type: functional; conditions: Lichtheimia corymbifera, 272, 48 h
[20] = test system: Trichophyton mentagrophytes; assay: Antifungal activity against Trichophyton mentagrophytes 445 after 72 hrs by broth microdilution method; assay type: functional; conditions: Trichophyton mentagrophytes, 445, 72 h
[21] = test system: Trichophyton mentagrophytes; assay: Antifungal activity against Trichophyton mentagrophytes 445 after 120 hrs by broth microdilution method; assay type: functional; conditions: Trichophyton mentagrophytes, 445, 120 h
[22] = test system: Staphylococcus aureus; assay: Antibacterial activity against Staphylococcus aureus ATCC 6538 after 24 hrs by broth microdilution method; assay type: functional; conditions: ATCC 6538, 24 h
[23] = test system: Staphylococcus aureus; assay: Antibacterial activity against Staphylococcus aureus ATCC 6538 after 48 hrs by broth microdilution method; assay type: functional; conditions: ATCC 6538, 48 h
[24] = test system: Staphylococcus aureus; assay: Antibacterial activity against methicillin-resistant Staphylococcus aureus HK5996/08 after 24 hrs by broth microdilution method; assay type: functional; conditions: HK5996/08, 24 h
[25] = test system: Staphylococcus aureus; assay: Antibacterial activity against methicillin-resistant Staphylococcus aureus HK5996/08 after 48 hrs by broth microdilution method; assay type: functional; conditions: HK5996/08, 48 h
[26] = test system: Staphylococcus epidermidis; assay: Antibacterial activity against Staphylococcus epidermidis HK6996/08 after 24 hrs by broth microdilution method; assay type: functional; conditions: HK6996/08, 24 h
[27] = test system: Staphylococcus epidermidis; assay: Antibacterial activity against Staphylococcus epidermidis HK6996/08 after 48 hrs by broth microdilution method; assay type: functional; conditions: HK6996/08, 48 h
[28] = test system: Enterococcus sp.; assay: Antibacterial activity against Enterococcus sp. HK14365/08 after 24 hrs by broth microdilution method; assay type: functional; conditions: HK14365/08, 24 h
[29] = test system: Enterococcus sp.; assay: Antibacterial activity against Enterococcus sp. HK14365/08 after 48 hrs by broth microdilution method; assay type: functional; conditions: HK14365/08, 48 h
[30] = test system: Escherichia coli; assay: Antibacterial activity against Escherichia coli ATCC 8739 after 24 hrs by broth microdilution method; assay type: functional; conditions: ATCC 8739, 24 h
[31] = test system: Escherichia coli; assay: Antibacterial activity against Escherichia coli ATCC 8739 after 48 hrs by broth microdilution method; assay type: functional; conditions: ATCC 8739, 48 h
[32] = test system: Klebsiella pneumoniae; assay: Antibacterial activity against Klebsiella pneumoniae HK11750/08 after 24 hrs by broth microdilution method; assay type: functional; conditions: HK11750/08, 24 h
[33] = test system: Klebsiella pneumoniae; assay: Antibacterial activity against Klebsiella pneumoniae HK11750/08 after 48 hrs by broth microdilution method; assay type: functional; conditions: HK11750/08, 48 h
[34] = test system: Klebsiella pneumoniae; assay: Antibacterial activity against extended spectrum beta-lactamase producing Klebsiella pneumoniae HK14368/08 after 24 hrs by broth microdilution method; assay type: functional; conditions: HK14368/08, 24 h
[35] = test system: Klebsiella pneumoniae; assay: Antibacterial activity against extended spectrum beta-lactamase producing Klebsiella pneumoniae HK14368/08 after 48 hrs by broth microdilution method; assay type: functional; conditions: HK14368/08, 48 h
[36] = test system: Pseudomonas aeruginosa; assay: Antibacterial activity against Pseudomonas aeruginosa ATCC 9027 after 24 hrs by broth microdilution method; assay type: functional; conditions: ATCC 9027, 24 h
[37] = test system: Pseudomonas aeruginosa; assay: Antibacterial activity against Pseudomonas aeruginosa ATCC 9027 after 48 hrs by broth microdilution method; assay type: functional; conditions: ATCC 9027, 48 h
[38] = Cytotoxicity against human HuH7 cells assessed as cell viability at 30 uM after 48 hrs by MTS assay relative to control; assay type: cell-based, Huh-7; conditions: read-out: Activity
[39] = test system: Huh-7; assay: Cytotoxicity against human HuH7 cells assessed as cell viability after 48 hrs by MTS assay; assay type: cell-based; conditions: Huh-7, 48 h
[40] = test system: A-431; assay: Cytotoxicity against human A431 cells assessed as cell viability after 48 hrs by MTS assay; assay type: cell-based; conditions: A-431, 48 h
[41] = Cytotoxicity against human A431 cells assessed as cell viability at 30 uM after 48 hrs by MTS assay relative to control; assay type: cell-based, A-431; conditions: read-out: Activity
[42] = test system: MDCK; assay: Cytotoxicity against MDCK cells assessed as cell viability after 48 hrs by MTS assay; assay type: cell-based; conditions: Canis lupus familiaris
[43] = Cytotoxicity against MDCK cells assessed as cell viability at 30 uM after 48 hrs by MTS assay relative to control; assay type: cell-based, Canis lupus familiaris; conditions: dog, read-out: Activity
[44] = test system: HepG2; assay: Cytotoxicity against human HepG2 cells assessed as cell viability after 48 hrs by MTS assay; assay type: cell-based; conditions: HepG2, 48 h
[45] = Cytotoxicity against human HepG2 cells assessed as cell viability at 30 uM after 48 hrs by MTS assay relative to control; assay type: cell-based; conditions: read-out: Activity
[46] = Selectivity index, ratio of IC50 for human HepG2 cells to MIC for Mycobacterium tuberculosis; assay type: toxicity; conditions: read-out: Selectivity Index
[47] = test system: Mycobacterium tuberculosis; assay: Antimycobacterial activity against Mycobacterium tuberculosis CNCTC My 331/88 after 21 days by micromethod; assay type: functional; conditions: CNCTC My 331/88, 504 h
[48] = test system: Mycobacterium kansasii; assay: Antimycobacterial activity against Mycobacterium kansasii CNCTC My 235/80 after 21 days by micromethod; assay type: functional; conditions: CNCTC My 235/80, 504 h
[49] = test system: Mycobacterium kansasii; assay: Antimycobacterial activity against Mycobacterium kansasii CNCTC My 235/80 after 7 days by micromethod; assay type: functional; conditions: CNCTC My 235/80, 168 h
[50] = test system: Mycobacterium kansasii; assay: Antimycobacterial activity against Mycobacterium kansasii 6509/96 clinical isolate after 21 days by micromethod; assay type: functional; conditions: 6509/96, 504 h
[51] = test system: Mycobacterium kansasii; assay: Antimycobacterial activity against Mycobacterium kansasii 6509/96 clinical isolate after 7 days by micromethod; assay type: functional; conditions: 6509/96, 168 h

O=[N+]([O-])c1cc(-c2nnc(SCc3ccc(Cl)c(Cl)c3)o2)cc([N+](=O)[O-])c1
MIC [1]: 32 µM (≈ 13.7 µg/mL)
MIC [2]: 0.03 µM (≈ 0.0128 µg/mL)
MIC [3]: 16 µM (≈ 6.84 µg/mL)
MIC [4]: 0.03 µM (≈ 0.0128 µg/mL)
MIC [5]: 0.03 µM (≈ 0.0128 µg/mL)
MIC [6]: > 125 µM
MIC [7]: > 125 µM
MIC [8]: > 125 µM
MIC [9]: > 125 µM
MIC [10]: > 125 µM
MIC [11]: > 125 µM
MIC [12]: > 125 µM
MIC [13]: > 125 µM
MIC [14]: > 125 µM
MIC [15]: > 125 µM
MIC [16]: > 125 µM
MIC [17]: > 125 µM
MIC [18]: > 125 µM
MIC [19]: > 125 µM
MIC [20]: > 125 µM
MIC [21]: > 125 µM
MIC [22]: > 125 µM
MIC [23]: > 125 µM
MIC [24]: > 125 µM
MIC [25]: > 125 µM
MIC [26]: > 125 µM
MIC [27]: > 125 µM
MIC [28]: > 125 µM
MIC [29]: > 125 µM
MIC [30]: > 125 µM
MIC [31]: > 125 µM
MIC [32]: > 125 µM
MIC [33]: > 125 µM
MIC [34]: > 125 µM
MIC [35]: > 125 µM
MIC [36]: > 125 µM
MIC [37]: > 125 µM
viability at 48 h, 30 µM [38]: 153%
IC50 [39]: > 30 µM
IC50 [40]: > 30 µM
viability at 48 h, 30 µM [41]: 126%
IC50 [42]: > 30 µM
viability at 48 h, 30 µM [43]: 91%
IC50 [44]: > 30 µM
viability at 48 h, 30 µM [45]: 125%
selectivity ratio [46]: > 1000
MIC [47]: 0.03 µM (≈ 0.0128 µg/mL)
MIC [48]: 0.03 µM (≈ 0.0128 µg/mL)
MIC [49]: 0.03 µM (≈ 0.0128 µg/mL)
MIC [50]: 0.03 µM (≈ 0.0128 µg/mL)
MIC [51]: 0.03 µM (≈ 0.0128 µg/mL)
